Consider twelve compounds from patent US8741946B2, “Inhibitors of flaviviridae viruses” (priority 2011, dated 2014).

One assay deals with HCV replicon. As to the kind of experiment: HCV replicon assay in Huh-7 cells (luciferase). In kind it is cell-based. The settings on record: Hepatitis C virus, 72 h; Huh-7 HCV replicon cells, 3 days incubation, luciferase readout; read-out: Wild-type EC50. The method, then:
The anti-HCV activity of the compounds of this invention was tested in a human hepatoma Huh-7 cell line harboring a HCV replicon. The assay comprised the following steps:
Serial dilution was performed in 100% DMSO in a 384-well plate. A solution containing a compound at 225-fold concentration of the starting final serial dilution concentration was prepared in 100% DMSO and 15 μL added to the pre-specified wells in column 3 or 13 of a polypropylene 384-well plate. The rest of the 384-well plate was filled with 10 μL100% DMSO except for columns 23 and 24, where 10 μL of 500 uM a HCV protease inhibitor (ITMN-191) in 100% DMSO was added. The HCV protease inhibitor was used a control of 100% inhibition of HCV replication. The plate was then placed on a Biomek FX Workstation to start the serial dilution. The serial dilution was performed for ten cycles of 3-fold dilution from column 3 to 12 or from column 13 to 22.
To each well of a black polypropylene 384-well plate, 90 μL of cell media containing 1600 suspended Huh-7 HCV replicon cells was added with a Biotek uFlow Workstation. A volume of 0.4 μL of the compound solution was transferred from the serial dilution plate to the cell culture plate on a Biomek FX Workstation. The DMSO concentration in the final assay condition was 0.44%. The plates were incubated for 3 days at 37° C. with 5% CO2 and 85% humidity.
a) Assessment of cytotoxicity: The media in the 384-well cell culture plate was aspirated with a Biotek EL405 plate-washer. A volume of 50 μL of a solution containing 400 nM Calcein AM in 100% PBS was added to each well of the plate with a Biotek uFlow Workstation. The plate was incubated for 30 minutes at room temperature before the fluorescence signal ([…]) was measured with a Perkin Elmer Envision Plate Reader.
b) Assessment of inhibition of viral replication: The calcein-PBS solution in the 384-well cell culture plate was aspirated with a Biotek EL405 plate-washer. A volume of 20 μL of Dual-Glo luciferase buffer (Promega, Dual-Glo Luciferase Assay Reagent, cat. #E298B) was added to each well of the plate with a Biotek uFlow Workstation. The plate was incubated for 10 minutes at room temperature. A volume of 20 μL of a solution containing 1:100 mixture of Dual-Glo Stop & Glo substrate (Promega, Dual-Glo Luciferase Assay Reagent, cat. #E313B) and Dual-Glo Stop & Glo buffer (Promega, Dual-Glo Luciferase Assay Reagent, cat. #E314B) was then added to each well of the plate with a Biotek uFlow Workstation. The plate was incubated at room temperature for 10 minutes before the luminescence signal was measured with a Perkin Elmer Envision Plate Reader.
The percent cytotoxicity was determined by calcein AM conversion to fluorescent product. The average fluorescent signal from the DMSO control wells were defined as 100% nontoxic. The individual fluorescent signal from testing compound treated well was divided by the average signal from DMSO control wells and then multiplied by 100% to get the percent viability. The percent anti-HCV replication activity was determined by the luminescence signal from the testing well compared to DMSO controls wells. The background signal was determined by the average luminescence signal from the HCV protease inhibitor treated wells and was subtracted from the signal from the testing wells as well as the DMSO control wells. Following 3-fold serial dilutions, the EC50 and CC50 values were calculated by fitting % inhibition at each concentration to the following equation: % inhibition=100%/[(EC50/[I])^b+1]
Where b is Hill's coefficient. See, for reference, Hill, A. V., The Possible Effects of the Aggregation of the Molecules of Hemoglobin on its Dissociation Curves, J. Physiol. 40: iv-vii. (1910).
% inhibition values at a specific concentration, for example 2 μM, can also be derived from the formula above.
For orientation: A replicon is a self-replicating genome or part of one, used to study replication in cells.

Assay [1] addresses T1, wild-type NS5B (amino acids 1-570; GT-1b) (Hepatitis C virus genotype 1b, UniProt Q9WMX2).
T1 construct: 21 residue C-terminal truncated forms of the NS5b protein (amino acids 1-570); GT-1b; made in house
As to the kind of experiment: Surface Plasmon Resonance binding affinity to wild-type NS5B. Also on record: species or system HCV GT-1b. An excerpt:
(§1) Compounds with minimal fold difference in binding affinity may have particular clinical utility.
(§2) In vitro studies with NS5B employed soluble, 21 residue C-terminal truncated forms of the NS5b protein (amino acids 1-570; GT-1b; wild-type and mutant M423T. See Hung, M., Wang, R., Liu, X.: ‘Preparation of HCV NS3 and NS5B to support small molecule drug discovery’, Current Protocols in Pharmacology, 2011, in press). Surface Plasmon Resonance (SPR) was used to measure the binding affinity of compounds described herein to the protein constructs. Standard amine coupling was employed to link the protein to the surface of a Biacore CM5 sensor chip using 10 mM sodium acetate pH 5.5 buffer to an immobilization level of ˜2500 RU. Experiments were performed using a Biacore T100 system at 25° C. in running buffer (50 mM Hepes pH 7.5, 5 mM MgCl2, […], 1 mM EDTA, 1 mM TCEP, 0.01% P20, 5% DMSO). Compounds were tested in a 3-fold concentration dilution series for 8 concentrations starting at 162 nM, using an association phase of 60 seconds and dissociation phase of 5 minutes at a flow rate of 100 μl min^−1. At the end of each binding cycle, a 3-second injection of a buffer (10 mM disodium tetraborate, 1M NaCl, pH8.5) at 40 μl min^−1 was used as a regeneration step to remove compounds still bound to the NS5B surface. Response data were processed using the following procedure: injections aligned in X and Y directions, double referenced using both a reference surface and buffer injections, and DMSO correction for excluded volume effects. Processed data were analyzed using non-linear least squares analysis with a global fit of a 1:1 binding model with mass transport.

The target of assay [2] is T2, NS5B mutant M423T (amino acids 1-570; GT-1b) (Hepatitis C virus genotype 1b, UniProt Q9WMX2, M2842T).
T2 construct: 21 residue C-terminal truncated forms of the NS5b protein (amino acids 1-570); GT-1b; made in house
As to the kind of experiment: Surface Plasmon Resonance binding affinity to M423T NS5B. On the set-up: species or system HCV GT-1b.
Source text: as §1, §2

Assay [3] concerns NS5B mutant M423T (amino acids 1-570; GT-1b). The assay is described as above. On the set-up: species or system HCV GT-1b. The conditions noted are these: M423T KD versus wild-type KD.
Source text: as §1, §2

In assay [4] the test system is genotype 1b (Con-1 strain) HCV replicon, wild-type. As to the kind of experiment: Transient transfection replicon assay, wild-type PI-hRluc replicon in Huh-lunet cells. In kind it is cell-based, HCV genotype 1b (Con-1 strain). The conditions noted are these: Hepatitis C virus, 72 h, wild-type genotype 1b PI-hRluc replicon, three days.
Assay [5] has as its system genotype 1b (Con-1 strain) HCV replicon with NS5B M423T mutation. Description: Transient transfection replicon assay, NS5B M423T mutant PI-hRluc replicon in Huh-lunet cells. The settings on record: Hepatitis C virus, 72 h, read-out: Replicon transient transfection EC50 M423T. In kind it is cell-based, HCV genotype 1b (Con-1 strain).
Where [6] appears, read: SPR, Biacore T100, 25° C., wild-type NS5B, read-out: Wild-type KD.

Read-outs that look alike come from different tables or passages of the source.

For orientation: EC50 means the concentration needed to bring the measured effect to its halfway point. Usually Kd stands for the concentration at which binding is half-saturated. In the case of `CC1=CC[C@H](C(=O)N(c2cc(C#CC(C)(C)C)sc2C(=O)O)C(C)C)[C@H](C)C1` (single isomer, unassigned) [Example 1], the EC50 in the assay on HCV replicon worked out at 8 nM. Moreover, the Kd came to 1.4 nM in assay [1] (setting [6]) and 7.7 nM in assay [2]. In assay [3], this compound showed a Fold difference of 5.6.

For `CC1=CC[C@@H](C(=O)N(c2cc(C#CC(C)(C)C)sc2C(=O)O)C(C)C)[C@H](C)C1` (single isomer, unassigned) [Example 2], in the assay with HCV replicon, the EC50 stood at 5 nM. In addition, the figures for the Kd in assay [1] (setting [6]) and in assay [2] were 2.8 nM and 26.8 nM, respectively. In assay [3], the Fold difference is on record as 9.5.

As for `CC(C)N(c1cc(C#CC(C)(C)C)sc1C(=O)O)C(=O)[C@H]1CC[C@H](C)CC1` [Comparative example 1, 5-(3,3-Dimethylbut-1-ynyl)-3-((1r,4r)-N-isopropyl-4-methylcyclohexanecarboxamido)thiophene-2-carboxylic acid, reference compound], the results for the 50% effective concentration (EC50) (in the assay with HCV replicon; in assay [4]; in assay [5]) were 26 nM, 26 nM and 293 nM, respectively. The values for the Kd in assay [1] (setting [6]) and in assay [2] were 1.7 nM and 2.78 nM, respectively. The Fold difference in assay [3] was 16.

On to `CC(C)(C)C#Cc1cc(N(C(=O)[C@H]2CC[C@H](C)CC2)[C@H]2CC[C@H](O)CC2)c(C(=O)O)s1` [Comparative example 2, 5-(3,3-Dimethylbut-1-ynyl)-3-((1r,4R)—N-((1r,4R)-4-hydroxycyclohexyl)-4-methylcyclohexanecarboxamido)thiophene-2-carboxylic acid, reference compound], for which the EC50 in the assay on HCV replicon amounted to 6 nM; in assay [4], 10 nM; in assay [5], 343 nM.

As for `CC(C)N(C(=O)[C@H]1CC[C@H](C)C[C@@H]1C)c1cc(C#CC(C)(C)C)sc1C(=O)O` [Comparative example 3, 5-(3,3-Dimethylbut-1-ynyl)-3-((1S,2S,4S)—N-isopropyl-2,4-dimethylcyclohexanecarboxamido)thiophene-2-carboxylic acid, reference compound], the concentration for a half-maximal effect (EC50) in the assay on HCV replicon came to 50 nM.

As to `CC(C)N(C(=O)[C@@H]1CC[C@@H](C)C[C@H]1C)c1cc(C#CC(C)(C)C)sc1C(=O)O` [Comparative example 4, 5-(3,3-Dimethylbut-1-ynyl)-3-((1R,2R,4R)—N-isopropyl-2,4-dimethylcyclohexanecarboxamido)thiophene-2-carboxylic acid, reference compound], the EC50 with HCV replicon turned out to be 8 nM. The Kd in assay [1] (setting [6]) worked out at 3.6 nM; in assay [2] it was 144 nM. For the same compound, in assay [3], the Fold difference was 40.

For `CC1=CC[C@H](C(=O)N(c2cc(C#CC(C)(C)C)sc2C(=O)O)C(C)C)[C@@H](C)C1` [Example 3, 5-(3,3-Dimethylbut-1-ynyl)-3-((1S,6S)—N-isopropyl-4,6-dimethylcyclohex-3-enecarboxamido)thiophene-2-carboxylic acid], the EC50 worked out at 5 nM with HCV replicon, 5 nM in assay [4] and 14 nM in assay [5]. In addition, the figures for the Kd in assay [1] (setting [6]) and in assay [2] were 0.7 nM and 4.2 nM, respectively.

In the case of `CC1=CC[C@@H](C(=O)N(c2cc(C#CC(C)(C)C)sc2C(=O)O)C(C)C)[C@@H](C)C1` [Example 4, 5-(3,3-dimethylbut-1-ynyl)-3-((1R,6S)—N-isopropyl-4,6-dimethylcyclohex-3-enecarboxamido)thiophene-2-carboxylic acid], in the assay on HCV replicon, the EC50 is 38 nM. For the same compound, the Kd in assay [1] (setting [6]) amounted to 6.5 nM; in assay [2] it was 18.5 nM.

Take `CC1=CC[C@@H](C(=O)N(c2cc(C#CC(C)(C)C)sc2C(=O)O)C(C)C)CC1` [Example 5, (S)-5-(3,3-Dimethylbut-1-ynyl)-3-(N-isopropyl-4-methylcyclohex-3-enecarboxamido)thiophene-2-carboxylic acid]: in the assay with HCV replicon, the EC50 was determined as 10 nM. For the same compound, the Kd was 1.5 nM in assay [1] and 13.7 nM in assay [2]. In assay [3], this compound returned a Fold difference of 9.0.

Take `CC1=CC[C@H](C(=O)N(c2cc(C#CC(C)(C)C)sc2C(=O)O)C(C)C)CC1` [Example 6, (R)-5-(3,3-Dimethylbut-1-ynyl)-3-(N-isopropyl-4-methylcyclohex-3-enecarboxamido)thiophene-2-carboxylic acid]: the EC50 with HCV replicon turned out to be 7 nM; in assay [4] it was 8 nM; in assay [5] it was 40 nM. Moreover, the Kd was determined as 1.3 nM in assay [1] (setting [6]) and 14.3 nM in assay [2]. The Fold difference in assay [3] was found to be 11.

As to `CC1=CC[C@H](C(=O)N(c2cc(C#CC(C)(C)C)sc2C(=O)O)[C@H]2CC[C@H](O)CC2)[C@@H](C)C1` [Example 7, 5-(3,3-Dimethylbut-1-ynyl)-3-((1S,6S)—N-((1r,4S)-4-hydroxycyclohexyl)-4,6-dimethylcyclohex-3-enecarboxamido)thiophene-2-carboxylic acid], the EC50 in the assay on HCV replicon is < 4.5 nM.

As to `CC1=CC[C@H](C(=O)N(c2cc(C#CC(C)(C)C)sc2C(=O)O)[C@H]2CC[C@H](O)CC2)CC1` [Example 8, 5-(3,3-Dimethylbut-1-ynyl)-3-((R)—N-((1r,4R)-4-hydroxycyclohexyl)-4-methylcyclohex-3-enecarboxamido)thiophene-2-carboxylic acid], the EC50 with HCV replicon is < 2.3 nM.
